Measured values reported in BindingDB's records for patent US20250313563 (The Broad Institute, 2025).
Several values for one entry are separate records, joined by “and”; a condition that tells them apart may be missing. Identical values can stand only once.

Legend:
[1] = biological target: Glycogen synthase kinase-3 alpha (Homo sapiens, UniProt P49840); test: TR-FRET Assay
Procedure, shortened: (§1)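 Signal is measured as TR-FRET between a terbium anti-phospho-Ser641 antibody and streptavidin-d2, added after an EDTA quench. Compounds are preincubated 30 min in assay buffer.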

[2] = biological target: Glycogen synthase kinase-3 beta (Homo sapiens, UniProt P49841); test: TR-FRET Assay
Procedure, shortened: as §1

Glycogen synthase kinase-3 beta, sequence (P49841 whole entry): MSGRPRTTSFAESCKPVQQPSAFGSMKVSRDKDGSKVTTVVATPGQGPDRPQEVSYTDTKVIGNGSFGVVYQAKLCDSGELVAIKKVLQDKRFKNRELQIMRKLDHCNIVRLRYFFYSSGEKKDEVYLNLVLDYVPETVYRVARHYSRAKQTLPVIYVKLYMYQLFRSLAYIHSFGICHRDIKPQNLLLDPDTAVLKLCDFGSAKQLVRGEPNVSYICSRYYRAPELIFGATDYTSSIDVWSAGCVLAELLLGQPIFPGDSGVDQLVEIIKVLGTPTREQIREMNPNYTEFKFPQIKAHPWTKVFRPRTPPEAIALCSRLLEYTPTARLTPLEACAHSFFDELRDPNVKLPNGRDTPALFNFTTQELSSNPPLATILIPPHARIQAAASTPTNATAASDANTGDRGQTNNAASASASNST
Glycogen synthase kinase-3 alpha, sequence (P49840 whole entry): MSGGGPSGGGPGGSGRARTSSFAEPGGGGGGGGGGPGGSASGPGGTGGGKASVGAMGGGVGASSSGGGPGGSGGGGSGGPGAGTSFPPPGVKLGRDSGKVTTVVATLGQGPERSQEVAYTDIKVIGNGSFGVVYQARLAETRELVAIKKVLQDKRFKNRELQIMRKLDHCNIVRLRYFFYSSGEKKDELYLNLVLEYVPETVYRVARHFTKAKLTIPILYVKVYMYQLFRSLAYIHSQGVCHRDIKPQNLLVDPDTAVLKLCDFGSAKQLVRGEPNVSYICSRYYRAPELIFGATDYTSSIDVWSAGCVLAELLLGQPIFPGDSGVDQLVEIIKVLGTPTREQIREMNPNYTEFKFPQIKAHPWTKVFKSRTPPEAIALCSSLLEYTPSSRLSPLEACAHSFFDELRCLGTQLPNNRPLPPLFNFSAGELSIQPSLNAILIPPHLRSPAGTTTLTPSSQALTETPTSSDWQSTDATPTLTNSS

Row | IC50 [1] | IC50 [2] | Structure (SMILES)
1 | < 0.1 µM | 0.1 to 1 µM | CC[C@]1(c2cccc(-c3ccnc(C)c3)c2)C2=CN=NC2NC2=C1C(=O)N[C@@]1(CCCOC1)C2 (stereo partly drawn) [US20250313563, Compound 948144]
2 | < 0.1 µM | < 0.1 µM | CC1(C)CC(=O)C2=C(C1)NC1=C(CN=N1)C21COC2(CN(C(=O)C(F)F)C2)C1 (stereo not drawn) [US20250313563, Compound 947485]
3 | > 5 µM | > 5 µM | CC[C@]1(c2cccc(N3CCOCC3)c2)C2=CN=NC2NC2=C1C(=O)CC(C)(C)C2 (stereo partly drawn) [US20250313563, Compound 810364]
4 | 1 to 5 µM | > 5 µM | CCC1(CCc2ccccc2)C2=C(N=NC2)NC2=C1C(=O)CC(C)(C)C2 (stereo not drawn) [US20250313563, Compound 819563]
5 | < 0.1 µM | < 0.1 µM and 0.1 to 1 µM | CC[C@]1(c2cccc(-c3ccnc(C)c3)c2)C2=C(CC(C)(C)CC2=O)NC2N=NC(C(F)(F)F)=C21 (stereo partly drawn) [US20250313563, Compound 917291]
6 | > 5 µM | > 5 µM | CC[C@@]1(c2cccc(C(F)(F)F)c2)C2=CN=NC2NC2=C1C(=O)NCC2 (stereo partly drawn) [US20250313563, Compound 912668]
7 | > 5 µM | > 5 µM | CC[C@@]1(c2cccc(-c3c(C)cnc4c(C)cccc34)c2)C2=CN=NC2NC2=C1C(=O)NC(C)(C)C2 (stereo partly drawn) [US20250313563, Compound 952760]
8 | < 0.1 µM | 0.1 to 1 µM | Cc1cc(S(=O)(=O)N2CCC3(CC2)C2=C(N=NC2)NC2=C3C(=O)CC(C)(C)C2)ccc1OC(C)C [US20250313563, Compound 945678]
9 | < 0.1 µM | < 0.1 µM | CCC1(c2cccc(N3CCOCC3)c2)C2=C(CC(C)(C)NC2=O)NC2N=NC(C(F)(F)F)=C21 (stereo not drawn) [US20250313563, Compound 947863]
10 | < 0.1 µM | 0.1 to 1 µM | CC[C@]1(c2cccc(N3CCC3(C)C)c2)C2=CN=NC2NC2=C1C(=O)CC(C)(C)C2 (stereo partly drawn) [US20250313563, Compound 913140]
11 | < 0.1 µM | < 0.1 µM and 0.1 to 1 µM | CC[C@@]1(c2cccc(-c3ccncc3C)c2)C2=CN=NC2NC2=C1C(=O)NC1(CCCC1)C2 (stereo partly drawn) [US20250313563, Compound 948022]
12 | < 0.1 µM | 0.1 to 1 µM | CCC1(c2cccc(Oc3ncccn3)c2)C2=C(CC(C)(C)NC2=O)NC2N=NC(F)=C21 (stereo not drawn) [US20250313563, Compound 950615]
13 | < 0.1 µM and 0.1 to 1 µM | < 0.1 µM and 1 to 5 µM | COc1cccc(S(=O)(=O)N2CCC3(CC2)C2=C(N=NC2)NC2=C3C(=O)CC(C)(C)C2)c1 [US20250313563, Compound 901468]
14 | < 0.1 µM | 0.1 to 1 µM | CC1(C)CC(=O)C2=C(NC3=C(CN=N3)C23CCN(S(=O)(=O)c2ccccc2C(F)F)CC3)[C@H]1F [US20250313563, Compound 951839]
15 | < 0.1 µM | < 0.1 µM | CC1(C)CC(=O)C2=C(C1)NC1=C(CN=N1)C21CCN(S(=O)(=O)c2ccc(Cl)c(Cl)c2)CC1 [US20250313563, Compound 945660]
16 | < 0.1 µM | 0.1 to 1 µM | CC[C@@]1(c2cccc(C3=C4CC=C(F)C=C4N=CC3)c2)C2=CN=NC2NC2=C1C(=O)NC(C)(C)C2 (stereo partly drawn) [US20250313563, Compound 948528]
17 | < 0.1 µM | < 0.1 µM and 0.1 to 1 µM | CC[C@]1(c2cccc(C(F)(F)F)c2)C2=CN=NC2NC2=C1C(=O)CC1(CCCC1)C2 (stereo partly drawn) [US20250313563, Compound 801311]
18 | < 0.1 µM | < 0.1 µM | Cc1cc(C)cc(C(=O)N2CC3(C2)CC2(CO3)C3=C(N=NC3)NC3=C2C(=O)CC(C)(C)C3)c1 (stereo not drawn) [US20250313563, Compound 947296]
19 | < 0.1 µM and 0.1 to 1 µM | < 0.1 µM and 1 to 5 µM | CC[C@]1(c2cccc(C(F)(F)F)c2)C2=CN=NC2NC2=C1C(=O)NC1(CCC1)C2 (stereo partly drawn) [US20250313563, Compound 914308]
20 | 0.1 to 1 µM | < 0.1 µM | CC(C)(C)CC1=C2C(N=N1)NC1=C(C(=O)CC(C)(C)C1)[C@]21CCc2cc(F)ccc21 (stereo partly drawn) [US20250313563, Compound 782424]

Row | IC50 [1] | IC50 [2] | Structure (SMILES)
21 | 0.1 to 1 µM | 1 to 5 µM | CC[C@]1(c2ccccc2)C2=CN=NC2NC2=C1C(=O)C[C@]1(CCOC1)C2 (stereo partly drawn) [US20250313563, Compound 816884]
22 | < 0.1 µM | 0.1 to 1 µM | CCC1(c2cccc(Br)c2)C2=C(N=NC2)NC2=C1C(=O)CC(C)(C)C2 (stereo not drawn) [US20250313563, Compound 789312]
23 | 1 to 5 µM | > 5 µM | CC[C@]1(c2cccc(-c3cn(C)nc3C)c2)C2=CN=NC2NC2=C1C(=O)CC(C)(C)C2 (stereo partly drawn) [US20250313563, Compound 945545]
24 | 0.1 to 1 µM | 1 to 5 µM | CC[C@@]1(c2cccc(N(C)c3cnccn3)c2)C2=CN=NC2NC2=C1C(=O)CC(C)(C)C2 (stereo partly drawn) [US20250313563, Compound 915340]
25 | < 0.1 µM | < 0.1 µM | CCC1(c2cccc(-c3cn(C)nc3C)c2)C2=C(CC(C)(C)NC2=O)NC2N=NC(C(F)F)=C21 (stereo not drawn) [US20250313563, Compound 949170]
26 | > 5 µM | > 5 µM | CC[C@@]1(c2cccc(C(C)C)c2)C2=CN=NC2NC2=C1C(=O)NC(C)(C)C2 (stereo partly drawn) [US20250313563, Compound 949752]
27 | < 0.1 µM | < 0.1 µM | Cn1cc(S(=O)(=O)N2CC[C@@]3(C2)C2=C(N=NC2)NC2=C3C(=O)CC(C)(C)C2)cn1 [US20250313563, Compound 943483]
28 | < 0.1 µM | 0.1 to 1 µM | CCC1(c2cccc(C(C)c3ncccn3)c2)C2=CN=NC2NC2=C1C(=O)CC(C)(C)C2 (stereo not drawn) [US20250313563, Compound 947434]
29 | > 5 µM | > 5 µM | CCC1(c2ccccc2)C2=C(N=NC2)NC2=C1C(=O)N(C)CC2 (stereo not drawn) [US20250313563, Compound 883867]
30 | < 0.1 µM | 0.1 to 1 µM | CC1(C)CC(=O)C2=C(NC3=C(CN=N3)[C@]23CC[C@@H](C(F)(F)F)CC3)C1F (stereo partly drawn) [US20250313563, Compound 917135]
31 | 0.1 to 1 µM | 1 to 5 µM | CC1(C)CC(=O)C2=C(C1)NC1=C(CN=N1)C2(C)c1cc(Cl)ccc1F (stereo not drawn) [US20250313563, Compound 810377]
32 | 0.1 to 1 µM | 1 to 5 µM | CC[C@]1(c2cccc(-c3c(C)nn(C)c3C)c2)C2=C(CC(C)(C)NC2=O)NC2N=NC(C)=C21 (stereo partly drawn) [US20250313563, Compound 947573]
33 | < 0.1 µM | 0.1 to 1 µM | CC[C@]1(c2cccc(-c3cc(C)nn3C)c2)C2=CN=NC2NC2=C1C(=O)CC(C)(C)[C@@H]2F (stereo partly drawn) [US20250313563, Compound 947655]
34 | > 5 µM | > 5 µM | CC1N=NC2=C1C1(CC3(CCC3)C1)C1=C(CC(C)(C)CC1=O)N2 (stereo not drawn) [US20250313563, Compound 877295]
35 | 0.1 to 1 µM | 1 to 5 µM | CC[C@@]1(c2cccc([C@@H]3CCOC3)c2)C2=CN=NC2NC2=C1C(=O)CC(C)(C)C2 (stereo partly drawn) [US20250313563, Compound 889565]
36 | 1 to 5 µM | > 5 µM | CCc1cc(-c2cccc(C3(CC)C4=CN=NC4NC4=C3C(=O)CC(C)(C)C4)c2)cc(CC)n1 (stereo not drawn) [US20250313563, Compound 929445]
37 | 0.1 to 1 µM | 0.1 to 1 µM | COC(=O)C1CCC2(CC1)C1=C(N=NC1)NC1=C2C(=O)CC(C)(C)C1 (stereo not drawn) [US20250313563, Compound 918270]
38 | 0.1 to 1 µM | 0.1 to 1 µM | CC[C@]1(c2cccc(-c3ccnc(C)c3)c2)C2=C(CC(C)(C)NC2=O)NC2N=NC(F)=C21 (stereo partly drawn) [US20250313563, Compound 949001]
39 | < 0.1 µM | < 0.1 µM | CC1(C)CC(=O)C2=C(C1)NC1=C(CN=N1)[C@]21C[C@@H](n2cccn2)C1 [US20250313563, Compound 884004]
